This assay concerns HCT116 colorectal cancer cells. The assay is described as follows: Cisplatin sensitization assay (96 h MTS cell viability).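 Further: compound concentration needed to lower the IC50 of Cisplatin alone by a set fold.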 Format: cell-based. To be noted: Cisplatin sensitization value. The gist of the method: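 The MTS viability read, after 1 h with reagent, followed 96 h of co-treatment at 37° C. in 5% CO2. Both compound and cisplatin were titrated 2-fold from a 10 μM top final concentration in a complete concentration matrix on HCT116 cells. Scores +++/++/+ reflect cisplatin sensitization value ranges.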
Turning to `Nc1nn2cc(F)cnc2c1C(=O)Nc1cnccc1O[C@H]1CCCNC1` [I-O-85, (S)-2-amino-6-fluoro-N-(4-(piperidin-3-yloxy)pyridin-3-yl)pyrazolo[1,5-a]pyrimidine-3-carboxamide], the “Cisplatin Sensitization Assay” value is listed as “+++ (Compounds with a Cisplatin sensitization value of <0.02 μM are marked with “+++.”)”.
As to `Nc1nn2cc(F)cnc2c1C(=O)Nc1cnccc1C1CCN(C(=O)C2CC2)CC1` [I-C-70, 2-amino-N-(4-(1-(cyclopropanecarbonyl)piperidin-4-yl)pyridin-3-yl)-6-fluoropyrazolo[1,5-a]pyrimidine-3-carboxamide], the “Cisplatin Sensitization Assay” value is given as “+++ (Compounds with a Cisplatin sensitization value of <0.02 μM are marked with “+++.”)”.
Under `COCCOc1ccncc1NC(=O)c1c(N)nn2cc(Cl)cnc12` [I-O-55, 2-amino-6-chloro-N-(4-(2-methoxyethoxy)pyridin-3-yl)pyrazolo[1,5-a]pyrimidine-3-carboxamide] stands “++ (Compounds with a Cisplatin sensitization value >0.02 μM but <0.2 μM are marked with “++.”)”.
As to `CN1CCC(S(=O)(=O)N2CCN(c3c(F)cncc3NC(=O)c3c(N)nn4cc(F)cnc34)CC2)CC1` [I-N-175, 2-amino-6-fluoro-N-(5-fluoro-4-(4-((1-methylpiperidin-4-yl)sulfonyl)piperazin-1-yl)pyridin-3-yl)pyrazolo[1,5-a]pyrimidine-3-carboxamide], the “Cisplatin Sensitization Assay” value is reported as “+++ (Compounds with a Cisplatin sensitization value of <0.02 μM are marked with “+++.”)”.
In the case of `Nc1nn2cc(F)cnc2c1C(=O)Nc1cncc(F)c1N1CCN2CCOC[C@@H]2C1` [I-N-137, (S)-2-amino-6-fluoro-N-(5-fluoro-4-(hexahydropyrazino[2,1-c][1,4]oxazin-8(1H)-yl)pyridin-3-yl)pyrazolo[1,5-a]pyrimidine-3-carboxamide] it was “++ (Compounds with a Cisplatin sensitization value >0.02 μM but <0.2 μM are marked with “++.”)”; in that of `Nc1nn2cc(F)cnc2c1C(=O)Nc1cnccc1N1CCN2C(=O)CCCC2C1` (stereo not shown) [I-N-244, 2-amino-6-fluoro-N-(4-(6-oxohexahydro-1H-pyrido[1,2-a]pyrazin-2(6H)-yl)pyridin-3-yl)pyrazolo[1,5-a]pyrimidine-3-carboxamide], “+++ (Compounds with a Cisplatin sensitization value of <0.02 μM are marked with “+++.”)”; in that of `Nc1nn2cc(F)cnc2c1C(=O)Nc1cncc(Cl)c1N1CCC(O)C1` (stereo not shown) [I-N-284, 2-amino-N-(5-chloro-4-(3-hydroxypyrrolidin-1-yl)pyridin-3-yl)-6-fluoropyrazolo[1,5-a]pyrimidine-3-carboxamide], “+++ (Compounds with a Cisplatin sensitization value of <0.02 μM are marked with “+++.”)”.
For `CN1CCOCC1C(=O)N1CCN(c2c(F)cncc2NC(=O)c2c(N)nn3cc(F)cnc23)CC1` (stereo not shown) [I-N-227, 2-amino-6-fluoro-N-(5-fluoro-4-(4-(4-methylmorpholine-3-carbonyl)piperazin-1-yl)pyridin-3-yl)pyrazolo[1,5-a]pyrimidine-3-carboxamide], the “Cisplatin Sensitization Assay” value is “+++ (Compounds with a Cisplatin sensitization value of <0.02 μM are marked with “+++.”)”.
For `Cn1nccc1-c1ccncc1NC(=O)c1c(N)nn2cc(F)cnc12` [I-C-57, 2-amino-6-fluoro-N-(4-(1-methyl-1H-pyrazol-5-yl)pyridin-3-yl)pyrazolo[1,5-a]pyrimidine-3-carboxamide], the “Cisplatin Sensitization Assay” value is on record as “+++ (Compounds with a Cisplatin sensitization value of <0.02 μM are marked with “+++.”)”.
Under `N#CCc1cnc2c(C(=O)Nc3cnccc3OC3CNC3)c(N)nn2c1` [I-O-82, 2-amino-N-(4-(azetidin-3-yloxy)pyridin-3-yl)-6-(cyanomethyl)pyrazolo[1,5-a]pyrimidine-3-carboxamide] stands “++ (Compounds with a Cisplatin sensitization value >0.02 μM but <0.2 μM are marked with “++.”)”.

Values taken from patent US11117900B2 (Vertex Pharmaceuticals Incorporated, priority 2012, dated 2021).
